Where a SMILES comes first, the peptide text is derived from it.
Key:
Settings in all cases: 10°C
[1] = target: T1, N-SH2 domain of PI3K, I62V variant (Homo sapiens, UniProt P27986, I383V); test: Stopped-flow binding kinetics, N-SH2 I62V
T1 construct: made in house
Method: (§1) N-SH2 wild-type and all the site-directed variants were expressed and purified as described previously ([Visconti et al., 2019]). All the mutants were obtained using a QuickChange Lightning Site-Directed Mutagenesis kit (Agilent technologies), accordingly to manufacturer instructions. Peptides with sequence TNSEDNpYVPMNPG mimicking wild-type Gab2 and TNSEDNpYVPANPG mimicking the M457A variant of Gab2 were purchased from GenScript Biotech Corporation.
(§2) Binding kinetics experiments were performed using a single-mixing SX-18 stopped-flow instrument (Applied Photophysics); all binding experiments were conducted in 50 mM Hepes pH 7.4 300 mM NaCl at 10°C. Excitation was at 280 nm and emission was collected using a […] cut-off glass filter. Pseudo-first order binding experiments were performed mixing a constant concentration of dansylated Gab2_448–460 and Gab2_448–460 M457A (1 μM) vs. N-SH2 wt and its mutants at concentrations ranging from […]. For each N-SH2 concentration, usually 5 individual traces were averaged and in all cases the fluorescence time courses obtained was satisfactorily fitted by using a single exponential equation.
(§3) One of the aims of this study is to depict the molecular details of the interaction between the N-SH2 domain of PI3K and Gab2. A powerful strategy to achieve this goal relies on perturbing the system by producing conservative site-directed variants while monitoring the effect of mutations on the association and dissociation rate constants between the interacting partners (kon and koff respectively). Thus, we designed and successfully produced 21 site-directed variants of the N-SH2 domain and challenged them vs. a peptide mimicking the region of Gab2 ranging from residue 448–460 (Gab2_448–460), containing the pY-X-X-M motif that is specifically recognized by the N-SH2 domain ([Waksman et al., 1992]; [Songyang et al., 1993]). The choise of mutations was designed in analogy to phi-value analysis methodology in protein folding studies ([Fersht and Sato, 2004]). […] To monitor binding by fluorescence, a dansyl group was added at the N-terminus of the peptide. The binding reaction was monitored by stopped-flow experiments following the change in FRET signal, taking advantage of the two Trp residues on the N-SH2 domain in positions 12 and 14 as fluorescence donor and the dansyl group on Gab2_448–460 as acceptor. The experiments were performed in pseudo-first order conditions with Gab2_448–460 at fixed concentration of 1 μM rapidly mixed vs. large excess of N-SH2 wt and its variants, ranging from 4 to 14 μM, in buffer Hepes 50 mM, NaCl 300 mM, pH 7.4, at 10°C.
(§4) with kon being the slope of the line and koff the intercept with the y-axis. Since indirect calculation of koff obtained by extrapolation is associated with high experimental error, we performed displacement experiments to directly measure koff by challenging a pre-incubated complex of dansylated Gab2_448–460 and N-SH2 domain both at the concentration of 1 μM vs. a large excess of non-dansylated Gab2_448–460 (50 μM). Kinetic parameters extracted from data together with the calculated changes in activation and equilibrium free energies are reported in Table 1. Analysis of kinetic data highlights that T48S, L51A, and L59A variations cause a detectable decrease of the affinity of the domain for Gab2_448–460 of ∼10-fold, affecting both the kon and koff. […] Since L99 residue is part of the binding pocket, this dramatic effect on the binding affinity is expected.
(§5) SH2 domains bind ligands with a phosphorylated tyrosine in their sequence. The N-SH2 domain of PI3K is known to recognize a specific consensus sequences that present a methionine in position +3 in respect to the phosphotyrosine (M457 in Gab2). […]

[2] = target: T2, N-SH2 domain of PI3K, I17V variant (Homo sapiens, UniProt P27986, I338V); test: Stopped-flow binding kinetics, N-SH2 I17V
T2 construct: made in house
Method: as §1, §2, §3, §4, §5

[3] = target: T3, N-SH2 domain of PI3K, L51A variant (Homo sapiens, UniProt P27986, L372A); test: Stopped-flow binding kinetics, N-SH2 L51A
T3 construct: made in house
Method: as §1, §2, §3, §4, §5

[4] = target: T4, N-SH2 domain of PI3K, V101A variant (Homo sapiens, UniProt P27986, V422A); test: Stopped-flow binding kinetics, N-SH2 V101A
T4 construct: made in house
Method: as §1, §2, §3, §4, §5

[5] = target: T5, N-SH2 domain of PI3K, P74A variant (Homo sapiens, UniProt P27986, P395A); test: Stopped-flow binding kinetics, N-SH2 P74A
T5 construct: made in house
Method: as §1, §2, §3, §4, §5

[6] = target: T6, N-SH2 domain of PI3K, T29S variant (Homo sapiens, UniProt P27986, T350S); test: Stopped-flow binding kinetics, N-SH2 T29S
T6 construct: made in house
Method: as §1, §2, §3, §4, §5

[7] = target: T7, N-SH2 domain of PI3K, V80A variant (Homo sapiens, UniProt P27986, V401A); test: Stopped-flow binding kinetics, N-SH2 V80A
T7 construct: made in house
Method: as §1, §2, §3, §4, §5

[8] = target: T8, N-SH2 domain of PI3K, V81A variant (Homo sapiens, UniProt P27986, V402A); test: Stopped-flow binding kinetics, N-SH2 V81A
T8 construct: made in house
Method: as §1, §2, §3, §4, §5

N-SH2 domain of PI3K, WT = target: T9, N-SH2 domain of PI3K, WT (Homo sapiens, UniProt P27986); test: Stopped-flow binding kinetics, N-SH2 WT
T9 construct: made in house
Method: as §1, §2, §3, §4, §5

[9] = target: T10, N-SH2 domain of PI3K, V22A variant (Homo sapiens, UniProt P27986, V343A); test: Stopped-flow binding kinetics, N-SH2 V22A
T10 construct: made in house
Method: as §1, §2, §3, §4, §5

[10] = target: T11, N-SH2 domain of PI3K, I60V variant (Homo sapiens, UniProt P27986, I381V); test: Stopped-flow binding kinetics, N-SH2 I60V
T11 construct: made in house
Method: as §1, §2, §3, §4, §5

[11] = target: T12, N-SH2 domain of PI3K, L75A variant (Homo sapiens, UniProt P27986, L396A); test: Stopped-flow binding kinetics, N-SH2 L75A
T12 construct: made in house
Method: as §1, §2, §3, §4, §5

[12] = target: T13, N-SH2 domain of PI3K, A30G variant (Homo sapiens, UniProt P27986, A351G); test: Stopped-flow binding kinetics, N-SH2 A30G
T13 construct: made in house
Method: as §1, §2, §3, §4, §5

[13] = target: T14, N-SH2 domain of PI3K, T50S variant (Homo sapiens, UniProt P27986, T371S); test: Stopped-flow binding kinetics, N-SH2 T50S
T14 construct: made in house
Method: as §1, §2, §3, §4, §5

[14] = target: T15, N-SH2 domain of PI3K, T76S variant (Homo sapiens, UniProt P27986, T397S); test: Stopped-flow binding kinetics, N-SH2 T76S
T15 construct: made in house
Method: as §1, §2, §3, §4, §5

[15] = target: T16, N-SH2 domain of PI3K, T33S variant (Homo sapiens, UniProt P27986, T354S); test: Stopped-flow binding kinetics, N-SH2 T33S
T16 construct: made in house
Method: as §1, §2, §3, §4, §5

[16] = target: T17, N-SH2 domain of PI3K, L104A variant (Homo sapiens, UniProt P27986, L425A); test: Stopped-flow binding kinetics, N-SH2 L104A
T17 construct: made in house
Method: as §1, §2, §3, §4, §5

[17] = displacement experiment, pH 7.4, 300 mM NaCl
[18] = stopped-flow FRET, 1 μM dansylated peptide, 50 mM Hepes pH 7.4, 300 mM NaCl
[19] = stopped-flow kinetics, pH 7.4, 300 mM NaCl

T1 sequence (P27986 333-428 I383V): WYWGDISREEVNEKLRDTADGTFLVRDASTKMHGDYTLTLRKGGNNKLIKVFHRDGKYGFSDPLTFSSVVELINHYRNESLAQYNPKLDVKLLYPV
T12 sequence (P27986 333-428 L396A): as the sequence (P27986 333-428 I383V) above, with V51I, L64A counted along it
T6 sequence (P27986 333-428 T350S): as the sequence (P27986 333-428 I383V) above, with T18S, V51I counted along it
T17 sequence (P27986 333-428 L425A): as the sequence (P27986 333-428 I383V) above, with V51I, L93A counted along it
T10 sequence (P27986 333-428 V343A): as the sequence (P27986 333-428 I383V) above, with V11A, V51I counted along it
T8 sequence (P27986 333-428 V402A): as the sequence (P27986 333-428 I383V) above, with V51I, V70A counted along it
T16 sequence (P27986 333-428 T354S): as the sequence (P27986 333-428 I383V) above, with T22S, V51I counted along it
T11 sequence (P27986 333-428 I381V): as the sequence (P27986 333-428 I383V) above, with I49V, V51I counted along it
T15 sequence (P27986 333-428 T397S): as the sequence (P27986 333-428 I383V) above, with V51I, T65S counted along it
T2 sequence (P27986 333-428 I338V): as the sequence (P27986 333-428 I383V) above, with I6V, V51I counted along it
T5 sequence (P27986 333-428 P395A): as the sequence (P27986 333-428 I383V) above, with V51I, P63A counted along it
T4 sequence (P27986 333-428 V422A): as the sequence (P27986 333-428 I383V) above, with V51I, V90A counted along it
T7 sequence (P27986 333-428 V401A): as the sequence (P27986 333-428 I383V) above, with V51I, V69A counted along it
T3 sequence (P27986 333-428 L372A): as the sequence (P27986 333-428 I383V) above, with L40A, V51I counted along it
T13 sequence (P27986 333-428 A351G): as the sequence (P27986 333-428 I383V) above, with A19G, V51I counted along it
T14 sequence (P27986 333-428 T371S): as the sequence (P27986 333-428 I383V) above, with T39S, V51I counted along it
T9 sequence (P27986 333-428 limits assumed): as the sequence (P27986 333-428 I383V) above, with V51I counted along it

## CC(C)[C@H](NC(=O)[C@H](Cc1ccc(OP(=O)(O)O)cc1)NC(=O)[C@H](CC(N)=O)NC(=O)[C@H](CC(=O)O)NC(=O)[C@H](CCC(=O)O)NC(=O)[C@H](CO)NC(=O)[C@H](CC(N)=O)NC(=O)[C@@H](N)[C@@H](C)O)C(=O)N1CCC[C@H]1C(=O)N[C@@H](C)C(=O)N[C@@H](CC(N)=O)C(=O)N1CCC[C@H]1C(=O)NCC(=O)O [Gab2_448–460 M457A] (HELM PEPTIDE1{T.N.S.E.D.N.[O=C([C@H](Cc1ccc(OP(=O)(O)O)cc1)N[*:1])[*:2]].V.P.A.N.P.G}$$$$V2.0)
[1]; [17]
  koff: 120 ± 6 s⁻¹
[1]; [18]
  kon: 1.84e+07 ± 1.5e+06 M⁻¹ s⁻¹
[1]; [19]
  Kd: 6.7 ± 0.6 µM
[2]; [17]
  koff: 90 ± 5 s⁻¹
[2]; [18]
  kon: 2.2e+07 ± 2.3e+06 M⁻¹ s⁻¹
[2]; [19]
  Kd: 4.3 ± 0.5 µM
[3]; [17]
  koff: 160 ± 8 s⁻¹
[3]; [18]
  kon: 2.12e+07 ± 3.3e+06 M⁻¹ s⁻¹
[3]; [19]
  Kd: 7.6 ± 1.2 µM
[4]; [17]
  koff: 170 ± 9 s⁻¹
[4]; [18]
  kon: 1.42e+07 ± 1.7e+06 M⁻¹ s⁻¹
[4]; [19]
  Kd: 12 ± 1 µM
[5]; [17]
  koff: 60 ± 3 s⁻¹
[5]; [18]
  kon: 2.25e+07 ± 1.9e+06 M⁻¹ s⁻¹
[5]; [19]
  Kd: 2.6 ± 0.3 µM
[6]; [17]
  koff: 80 ± 4 s⁻¹
[6]; [18]
  kon: 1.97e+07 ± 2.7e+06 M⁻¹ s⁻¹
[6]; [19]
  Kd: 4 ± 0.6 µM
[7]; [17]
  koff: 130 ± 6 s⁻¹
[7]; [18]
  kon: 2.23e+07 ± 5.4e+06 M⁻¹ s⁻¹
[7]; [19]
  Kd: 5.6 ± 1.4 µM
[8]; [17]
  koff: 90 ± 5 s⁻¹
[8]; [18]
  kon: 2.05e+07 ± 3.8e+06 M⁻¹ s⁻¹
[8]; [19]
  Kd: 4.5 ± 0.9 µM
N-SH2 domain of PI3K, WT; displacement of 1 μM complex by 50 μM non-dansylated Gab2_448–460, 50 mM Hepes pH 7.4, 300 mM NaCl
  koff: 80 ± 4 s⁻¹
N-SH2 domain of PI3K, WT; from stopped-flow kinetics, pH 7.4, 300 mM NaCl
  Kd: 3.7 ± 0.4 µM
N-SH2 domain of PI3K, WT; stopped-flow FRET, 1 μM dansylated peptide vs excess N-SH2, 50 mM Hepes pH 7.4, 300 mM NaCl, slope of kobs
  kon: 2.15e+07 ± 2.4e+06 M⁻¹ s⁻¹
[9]; [17]
  koff: 170 ± 9 s⁻¹
[9]; [18]
  kon: 1.77e+07 ± 2.6e+06 M⁻¹ s⁻¹
[9]; [19]
  Kd: 9.7 ± 1.5 µM
[10]; [17]
  koff: 80 ± 4 s⁻¹
[10]; [18]
  kon: 1.52e+07 ± 1.5e+06 M⁻¹ s⁻¹
[10]; [19]
  Kd: 5 ± 0.6 µM
[11]; [17]
  koff: 110 ± 5 s⁻¹
[11]; [18]
  kon: 1.88e+07 ± 3.2e+06 M⁻¹ s⁻¹
[11]; [19]
  Kd: 5.7 ± 1 µM
[12]; [17]
  koff: 90 ± 4 s⁻¹
[12]; [18]
  kon: 1.71e+07 ± 2.2e+06 M⁻¹ s⁻¹
[12]; [19]
  Kd: 5.1 ± 0.7 µM
[13]; [17]
  koff: 140 ± 7 s⁻¹
[13]; [18]
  kon: 2.02e+07 ± 2e+06 M⁻¹ s⁻¹
[13]; [19]
  Kd: 6.8 ± 0.8 µM
[14]; [17]
  koff: 100 ± 5 s⁻¹
[14]; [18]
  kon: 1.96e+07 ± 2.6e+06 M⁻¹ s⁻¹
[14]; [19]
  Kd: 5 ± 0.7 µM
[15]; [17]
  koff: 80 ± 4 s⁻¹
[15]; [18]
  kon: 2.06e+07 ± 2.9e+06 M⁻¹ s⁻¹
[15]; [19]
  Kd: 3.8 ± 0.6 µM
[16]; [17]
  koff: 110 ± 6 s⁻¹
[16]; [18]
  kon: 2.21e+07 ± 1.4e+06 M⁻¹ s⁻¹
[16]; [19]
  Kd: 5.2 ± 0.4 µM

— article PMC7247818, “Demonstration of Binding Induced Structural Plasticity in a SH2 Domain” (Frontiers in Molecular Biosciences, 2020)
